Experimental findings from PMC6628435, “Chemical Synthesis, Proper Folding, Nav Channel Selectivity Profile and Analgesic Properties of the Spider Peptide Phlotoxin 1” (Toxins, 2019) are described below.

Each structure is given as a SMILES string. Bridge positions count the residues as written; N and C are the ends. Peptide text beside a SMILES is read from it.

The subject of one test is para/tipE. Briefly: Two-electrode voltage-clamp on Xenopus laevis oocytes expressing insect Nav channel para/tipE. It is filed as cell-based, Fruit fly. The conditions noted are these: 1 µM; voltage of maximum sodium influx, holding −90 mV; oocytes TEVC; n ≥ 3. From the text: (§1) Using the two-electrode voltage-clamp technique on Xenopus laevis oocytes, the effect of PhlTx1 was also compared on eight different cloned vertebrate Nav channels co-expressed with the β1 subunit (Nav1.1-1.8/β1) and on the neuronal insect Nav channel, para, co-expressed with the tipE subunit (Figure 3 and Figure 4). […] Normalized current-voltage relationships (I-V curve) of Nav1.2/β1 and Nav1.3/β1 channels seemed to be shifted towards more negative potentials when PhlTx1 was applied, but shifts were not statistically significant […] (Figure 4). The activation phase of the other studied Nav channel subtypes was not affected. No obvious alteration in channel availability was observed, except a 5-mV negative shift for Nav1.3/β1, although that was also non-significant (p > 0.05).
(§2) Figure 4 1 µM of PhlTx1 was tested on Nav1.1/β1, Nav1.2/β1, Nav1.3/β1, Nav1.4/β1, Nav1.5/β1, Nav1.6/β1, Nav1.8/β1 and para/tipE (n ≥ 3). Left column: current traces were evoked by a 50-ms depolarization to the voltage of maximum sodium influx, depending on the Nav studied, from a holding potential of −90 mV. At 1 µM PhlTx1, all studied Nav channels, except Nav1.4/β1, were blocked for about 10% (no toxin: *). The current of Nav1.4/β1 was reduced for about 35 ± 5%. Middle column: normalized I-V curves reveal no significant shift of the activation voltage (p > 0.05). […]

Test [1] deals with formalin-induced spontaneous pain behavior. Nature of the test: Formalin pain test in mice after intrathecal injection. It is filed as in vivo, C57BL/6J mice. The conditions noted are these: intrathecal, 10 µL; PhlTx1 100 pmoles (n = 5), morphine 0.25 mg (n = 6); 10 µL 5% formalin in hindpaw; versus vehicle.
A further test deals with Nav1.2/β1. Nature of the test: Two-electrode voltage-clamp on Xenopus laevis oocytes expressing Nav1.2/β1. It is filed as cell-based. The conditions noted are these: 1 µM; voltage of maximum sodium influx, holding −90 mV; oocytes TEVC; n ≥ 3.
Excerpt: as §1, §2

Another test deals with Nav1.1/β1. Briefly: Two-electrode voltage-clamp on Xenopus laevis oocytes expressing Nav1.1/β1. It is filed as cell-based. The conditions noted are these: 1 µM; voltage of maximum sodium influx, holding −90 mV; oocytes TEVC; n ≥ 3.
Excerpt: as §1, §2

For the compound `CC(C)C[C@@H]1NC(=O)[C@@H](NC(=O)[C@H](C)N)CSSC[C@@H]2NC(=O)[C@@H]3CSSC[C@@H](C(=O)N[C@@H](CCCNC(=N)N)C(=O)N[C@@H](Cc4ccc(O)cc4)C(=O)N[C@@H](CCCCN)C(=O)N[C@@H](CC(C)C)C(=O)N[C@@H](Cc4ccccc4)C(=O)O)NC(=O)[C@H](Cc4c[nH]c5ccccc45)NC(=O)[C@@H]4CCCN4C(=O)[C@H](Cc4ccc(O)cc4)NC(=O)[C@H](CCCCN)NC(=O)[C@H](Cc4c[nH]c5ccccc45)NC(=O)[C@H](CCC(=O)O)NC(=O)[C@H](CSSC[C@H](NC(=O)[C@H](CO)NC(=O)[C@H](CC(=O)O)NC(=O)[C@H](Cc4c[nH]c5ccccc45)NC(=O)[C@H](CCC(N)=O)NC(=O)CNC1=O)C(=O)N[C@@H](CC(=O)O)C(=O)N1CCC[C@H]1C(=O)N[C@@H](CCCCN)C(=O)N[C@@H](C)C(=O)N[C@@H](CO)C(=O)N[C@@H](CCCCN)C(=O)N3)NC(=O)[C@H](C)NC(=O)[C@H](Cc1ccc(O)cc1)NC(=O)[C@H](CC(N)=O)NC(=O)[C@@H]1CCCN1C2=O` [PhlTx1, Phlotoxin-1] (H-ACLGQWDSCDPKASKCCPNYACEWKYPWCRYKLF-OH; disulfide 2-17, 9-22, 16-29; N-terminus and C-terminus assumed), the “block of sodium current” value in the test with para/tipE, in the test with Nav1.2/β1 and with Nav1.1/β1 was “about 10%” each time. Further, the “formalin-induced pain behavior (licking), Phase II (inflammation, 10–45 min)” value in test [1] is “substantially reduced the response”. Further, the “formalin-induced pain behavior, Phase I (acute pain, 0–10 min)” value in test [1] is given as “substantially reduced the response”.
